Legend:
[1] = target: T1, B1R receptor of the rat (rB1R) (Rattus norvegicus, UniProt P97583); assay: Functional FLIPR Ca2+ assay on the bradykinin 1 receptor, rat (rB1R CHO K1 cells); format: cell-based; settings: test substance 10 μM; CHO K1 cells transfected with rat B1R gene; agonist Des-Arg9-bradykinin at EC80; % inhibition compared with maximum achievable inhibition; read-out: B1R antagonism, rat [10 μM] % inhibition
T1 construct: expressed in transfected cells; host or cells: CHO K1 cells (Chinese hamster ovary), stably transfected
T1 sequence (P97583 1-337): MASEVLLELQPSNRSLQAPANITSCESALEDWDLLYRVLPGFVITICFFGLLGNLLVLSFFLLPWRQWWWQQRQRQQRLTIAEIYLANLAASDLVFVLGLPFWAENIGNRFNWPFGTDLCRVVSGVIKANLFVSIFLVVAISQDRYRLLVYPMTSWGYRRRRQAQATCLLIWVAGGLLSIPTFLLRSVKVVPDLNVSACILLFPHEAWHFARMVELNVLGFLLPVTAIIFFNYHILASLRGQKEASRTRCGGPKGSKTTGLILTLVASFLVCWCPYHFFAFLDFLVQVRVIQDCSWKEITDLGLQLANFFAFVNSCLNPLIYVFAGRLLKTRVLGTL
Experimental: (§1) The agonistic or antagonistic action of substances can be quantified on the bradykinin 1 receptor (B1R) of the human and rat species with ectopically expressing cell lines (CHO K1 cells) and with the aid of a Ca^2+-sensitive dyestuff (Fluo-4) in a fluorescent imaging plate reader (FLIPR). The figure in % activation is based on the Ca^2+ signal after addition of Lys-Des-Arg^9-bradykinin (0.5 nM) or Des-Arg^9-bradykinin (100 nM). Antagonists lead to a suppression of the Ca^2+ inflow after addition of the agonist. % inhibition compared with the maximum achievable inhibition is stated.
(§2) The agonistic or antagonistic action of substances can be determined on the bradykinin 1 receptor (B1R) of the human and rat species with the following assay. In accordance with this assay, the Ca^2+ inflow through the channel is quantified with the aid of a Ca^2+-sensitive dyestuff (type Fluo-4, Molecular Probes Europe BV, Leiden, Holland) in a fluorescent imaging plate reader (FLIPR, Molecular Devices, Sunnyvale, USA).
(§3) Chinese hamster ovary cells (CHO K1 cells) transfected stably with the human B1R gene (hB1R cells) or the B1R gene of the rat (rB1R cells) are used. For functional studies, these cells are plated out on black 96-well plates with a clear base (BD Biosciences, Heidelberg, Germany or Greiner, Frickenhausen, Germany) in a density of 20,000-35,000 cells/well. The cells are left overnight at 37° C. and 5% CO2 in culture medium (hB1R cells: Nutrient Mixture Ham's F12, Gibco Invitrogen GmbH, Karlsruhe, Germany or DMEM, Sigma-Aldrich, Taufkirchen, Germany; rB1R cells: D-MEM/F12, Gibco Invitrogen GmbH, Karlsruhe, Germany) with 10 vol. % FBS (foetal bovine serum, Gibco Invitrogen GmbH, Karlsruhe, Germany or PAN Biotech GmbH, Aidenbach, Germany). On the following day, the cells are loaded for 60 min at 37° C. with 2.13 μM Fluo-4 (Molecular Probes Europe BV, Leiden, Holland) in HBSS buffer (Hank's buffered saline solution, Gibco Invitrogen GmbH, Karlsruhe, Germany) with 2.5 mM probenecid (Sigma-Aldrich, Taufkirchen, Germany) and 10 mM HEPES (Sigma-Aldrich, Taufkirchen, Germany). The plates are then washed 2× with HBSS buffer, and HBSS buffer which additionally contains 0.1% BSA (bovine serum albumin; Sigma-Aldrich, Taufkirchen, Germany), 5.6 mM glucose and 0.05% gelatine (Merck KgaA, Darmstadt, Germany) is added. After a further incubation of 20 minutes at room temperature, the plates are inserted into the FLIPR for the Ca^2+ measurement.
(§4) Alternatively, the plates are washed with buffer A (15 mM HEPES, 80 mM NaCl, 5 mM KCl, 1.2 mM CaCl2, 0.7 mM MgSO4, 2 g/l glucose, 2.5 mM probenecid), buffer A is added and the plates are loaded with 2.5 μM Fluo-4 and 0.025% Pluronic F127 (Sigma-Aldrich, Taufkirchen, Germany). Thereafter, the cells are washed 2× with buffer A and incubated for 30 minutes with buffer A, which additionally contains 0.05% BSA and 0.05% gelatine, at room temperature and thereafter inserted into the FLIPR for the Ca^2+ measurement. The Ca^2+-dependent fluorescence is measured here before and after addition of substances (λex=488 nm, λem=540 nm). Quantification is by measurement of the highest fluorescence intensity (FC, fluorescence counts) over time.
(§5) The FLIPR protocol consists of 2 additions of substance. Test substances (10 μM) are first pipetted on to the cells and the Ca^2+ inflow is compared with the control (hB1R: Lys-Des-Arg^9-bradykinin >=50 nM; rB1R: Des-Arg^9-bradykinin 10 μM). This gives the figure in % activation based on the Ca^2+ signal after addition of Lys-Des-Arg^9-bradykinin (>=50 nM) or Des-Arg^9-bradykinin (10 μM). After incubation for 10-20 minutes, Lys-Des-Arg^9-bradykinin (hB1R) or Des-Arg^9-bradykinin (rB1R) in the concentration of the EC80 is applied and the inflow of Ca^2+ is likewise determined. Antagonists lead to a suppression of the Ca^2+ inflow. % inhibition compared with the maximum achievable inhibition is calculated. In order to determine the IC50 value, the substances are added in various concentrations. […]

[2] = target: T2, human B1R receptor (hB1R) (Homo sapiens, UniProt P46663); assay: Functional FLIPR Ca2+ assay on the bradykinin 1 receptor, human (hB1R CHO K1 cells); format: cell-based; settings: test substance 10 μM; CHO K1 cells transfected with human B1R gene; agonist Lys-Des-Arg9-bradykinin at EC80; % inhibition compared with maximum achievable inhibition; read-out: B1R antagonism, human (10 μM] % inhibition
T2 construct: expressed in transfected cells; host or cells: CHO K1 cells (Chinese hamster ovary), stably transfected
T2 sequence (P46663 1-353): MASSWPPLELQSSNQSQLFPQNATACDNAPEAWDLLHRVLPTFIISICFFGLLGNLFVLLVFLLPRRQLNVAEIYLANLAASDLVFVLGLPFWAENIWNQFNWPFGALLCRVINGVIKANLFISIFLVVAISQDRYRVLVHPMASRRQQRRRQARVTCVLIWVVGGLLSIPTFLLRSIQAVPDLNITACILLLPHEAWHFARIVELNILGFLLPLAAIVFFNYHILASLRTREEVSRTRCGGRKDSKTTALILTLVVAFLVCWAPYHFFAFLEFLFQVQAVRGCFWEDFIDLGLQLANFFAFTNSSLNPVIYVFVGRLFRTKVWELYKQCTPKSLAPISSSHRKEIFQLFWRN
Experimental: as §1, §2, §3, §4, §5

Row | inhibition at 10 µM [1] [%] | inhibition at 10 µM [2] [%] | SMILES
1 | 97 | 28 | O=C(CC1CCCCN1S(=O)(=O)c1cccc(C(F)(F)F)c1)N1CCc2nc(-c3ccncc3)sc2C1 (stereo not shown) [Example 37, 1-(2-(pyridin-4-yl)-6,7-dihydrothiazolo[5,4-c]pyridin-5(4H)-yl)-2-(1-(3-(trifluoromethyl)phenylsulfonyl)piperidin-2-yl)ethan-1-one]
2 | 99 | 99 | COc1cc(C)c(S(=O)(=O)N2CCCCC2CCCC(=O)N2CCc3nc(Cc4ccncc4)sc3C2)c(C)c1 (stereo not shown) [Example 43, 4-(1-(4-methoxy-2,6-dimethylphenylsulfonyl)piperidin-2-yl)-1-(2-(pyridin-4-ylmethyl)-6,7-dihydrothiazolo[5,4-c]pyridin-5(4H)-yl)butan-1-one]
3 | 81 | 43 | Cc1cc(S(=O)(=O)N2CCCCC2CCC(=O)N2CCc3sccc3C2c2ccccc2)c(C)cc1Cl (stereo not shown) [Example 16, 3-(1-(4-chloro-2,5-dimethylphenylsulfonyl)piperidin-2-yl)-1-(4-phenyl-6,7-dihydrothieno[3,2-c]pyridin-5(4H)-yl)propan-1-one]
4 | 79 | 14 | O=C(CC(NS(=O)(=O)c1ccc2ccccc2c1)c1ccccc1)N1CCc2nc(Cc3ccncc3)sc2C1 (racemic) [Example 42, N-(3-oxo-1-phenyl-3-(2-(pyridin-4-ylmethyl)-6,7-dihydrothiazolo[5,4-c]pyridin-5(4H)-yl)propyl)naphthalene-2-sulfonamide]
5 | 105 | 100 | COc1cc(C)c(S(=O)(=O)N2CCCCC2COCC(=O)N2CCc3onc(CN(C)C)c3C2)c(C)c1 (stereo not shown) [Example 31, 1-(3-((dimethylamino)methyl)-6,7-dihydroisoxazolo[4,5-c]pyridin-5(4H)-yl)-2-((1-(4-methoxy-2,6-dimethylphenylsulfonyl)piperidin-2-yl)methoxy)ethanone]
6 | 104 | 90 | COc1cc(C)c(S(=O)(=O)N2CCCCC2COCC(=O)N2CCc3onc(CN4CCCCC4)c3C2c2ccccc2)c(C)c1 (stereo not shown) [Example 126, 2-((1-(4-Methoxy-2,6-dimethylphenylsulfonyl)piperidin-2-yl)methoxy)-1-(4-phenyl-3-(piperidin-1-ylmethyl)-6,7-dihydroisoxazolo[4,5-c]pyridin-5(4H)-yl)ethanone]

The next lines start with the molecule.

Row | SMILES | inhibition at 10 µM [1] [%] | inhibition at 10 µM [2] [%]
7 | COc1cc(C)c(S(=O)(=O)N2CCCCC2COCC(=O)N2CCc3onc(-c4ccc(F)cc4)c3C2)c(C)c1 (stereo not shown) [Example 25, 1-(3-(4-fluorophenyl)-6,7-dihydroisoxazolo[4,5-c]pyridin-5(4H)-yl)-2-((1-(4-methoxy-2,6-dimethylphenylsulfonyl)piperidin-2-yl)methoxy)ethanone] | 103 | 86
8 | Cc1cccc(Cl)c1S(=O)(=O)N1CCCC[C@H]1COCC(=O)N1CCc2sc(CN3CCCCC3)cc2C1 [Example 59, 2-[[(2S)-1-[(2-chloro-6-methyl-phenyl)sulfonyl]-piperidin-2-yl]-methoxy]-1-[2-(piperidin-1-yl-methyl)-4,5,6,7-tetrahydro-thieno[3,2-c]pyridin-5-yl]-ethanone] | 104 | 100
9 | O=C(CC1CCCCN1S(=O)(=O)c1cccc(C(F)(F)F)c1)N1CCc2sccc2C1c1ccc(F)cc1 (stereo not shown) [Example 19, 1-(4-(4-fluorophenyl)-6,7-dihydrothieno[3,2-c]pyridin-5(4H)-yl)-2-(1-(3-(trifluoromethyl)phenylsulfonyl)piperidin-2-yl)ethanone] | 83 | 35
10 | COc1cc(C)c(S(=O)(=O)N2c3ccccc3CC[C@H]2COCC(=O)N2CCc3sc(CN4CCCCC4)cc3C2)c(C)c1 [Example 61, 2-[[(2S)-1-[(4-methoxy-2,6-dimethyl-phenyl)sulfonyl]-1,2,3,4-tetrahydro-quinolin-2-yl]-methoxy]-1-[2-(piperidin-1-yl-methyl)-4,5,6,7-tetrahydro-thieno[3,2-c]pyridin-5-yl]-ethanone] | 106 | 100
11 | COc1cc(C)c(S(=O)(=O)N2CCCCC2COCC(=O)N2CCc3sccc3C2c2cccc(C)c2)c(C)c1 (stereo not shown) [Example 08, 2-((1-(4-methoxy-2,6-dimethylphenylsulfonyl)piperidin-2-yl)methoxy)-1-(4-m-tolyl-6,7-dihydrothieno[3,2-c]pyridin-5(4H)-yl)ethanone] | 106 | 48
12 | COc1cc(C)c(S(=O)(=O)N(C)CCOCC(=O)N2CCc3onc(CN4CCCCC4)c3C2)c(C)c1 [Example 13, 4-methoxy-N,2,6-trimethyl-N-(2-(2-oxo-2-(3-(piperidin-1-ylmethyl)-6,7-dihydroisoxazolo[4,5-c]pyridin-5(4H)-yl)ethoxy)ethyl)benzenesulfonamide] | 99 | 56
13 | COc1cc(C)c(S(=O)(=O)N2CCCC[C@H]2COCC(=O)N2CCc3nc(CN4CCCCC4)sc3C2)c(C)c1 [Example 58, 2-[[(2S)-1-[(4-Methoxy-2,6-dimethyl-phenyl)sulfonyl]-piperidin-2-yl]-methoxy]-1-[2-(piperidin-1-yl-methyl)-4,5,6,7-tetrahydro-thiazolo[5,4-c]pyridin-5-yl]-ethanone] | 103 | 100
14 | COc1cc(C)c(S(=O)(=O)N(C)CCOCC(=O)N2CCc3sc(CN4CCCCC4)cc3C2)c(C)c1 [Example 28, 4-Methoxy-N,2,6-trimethyl-N-(2-(2-oxo-2-(2-(piperidin-1-yl-methyl)-6,7-dihydrothieno[3,2-c]pyridin-5(4H)-yl)ethoxy)ethyl)benzene-sulfonamide] | 109 | 100
